From PubChem BioAssay (NCI)
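Exposure lasted 48 hours, with cells grown in 96-well plates and compounds tested at five concentrations. TGI: total growth inhibition.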

Assays:
Test in all cases: NCI anticancer screen, dose series, 48 h
[1] = test system: ACHN renal
[2] = test system: HT29 colon
[3] = test system: EKVX NSCLC
[4] = test system: OVCAR-3 ovarian
[5] = test system: SNB-19 CNS
[6] = test system: LOX IMVI melanoma
[7] = test system: OVCAR-5 ovarian
[8] = test system: MDA-MB-435
[9] = test system: DU-145 prostate
[10] = test system: CAKI-1 renal
[11] = test system: OVCAR-8 ovarian
[12] = test system: CCRF-CEM leukemia
[13] = test system: SF-268 CNS
[14] = test system: UO-31 renal
[15] = test system: NCI-H460 lung
[16] = test system: SK-MEL-5 melanoma
[17] = test system: K-562 leukemia
[18] = test system: COLO 205 colon
[19] = test system: MALME-3M melanoma
[20] = test system: SK-MEL-28 melanoma
[21] = test system: SF-539 CNS
[22] = test system: TK-10 renal
[23] = test system: KM12 colon
[24] = test system: SF-295 CNS
[25] = test system: A549 NSCLC
[26] = test system: IGROV1 ovarian
[27] = test system: 786-0 renal
[28] = test system: RPMI-8226 leukemia
[29] = test system: NCI-H226 lung
[30] = test system: HS 578T breast
[31] = test system: NCI-H23 lung
[32] = test system: SR leukemia
[33] = test system: M14 melanoma
[34] = test system: UACC-62 melanoma
[35] = test system: PC-3 prostate
[36] = test system: SN12C renal
[37] = test system: UACC-257 melanoma
[38] = test system: HCT-116 colon
[39] = test system: HL-60(TB) leukemia
[40] = test system: NCI/ADR-RES ovarian
[41] = test system: SW-620 colon
[42] = test system: MOLT-4 leukemia
[43] = test system: MDA-MB-231 breast
[44] = test system: SK-MEL-2 melanoma
[45] = test system: U251 CNS
[46] = test system: HCT-15 colon
[47] = test system: NCI-H522 lung
[48] = test system: HCC-2998 colon
[49] = test system: HOP-62 NSCLC
[50] = test system: MCF7 breast
[51] = test system: OVCAR-4 ovarian
[52] = test system: SK-OV-3 ovarian
[53] = test system: RXF 393 renal
[54] = test system: BT-549 breast
[55] = test system: MDA-N
[56] = test system: HOP-92 NSCLC
[57] = test system: SNB-75 CNS

## CC(CCOc1c2ccoc2cc2oc(=O)ccc12)C1=CC(=O)C(C)(C)O1 (centres undefined)
[1]
  TGI: > 100 µM
[2]
  TGI: > 100 µM
[3]
  TGI: > 100 µM
[4]
  TGI: > 100 µM
[5]
  TGI: > 100 µM
[6]
  TGI: > 100 µM
[7]
  TGI: > 100 µM
[8]
  TGI: > 100 µM
[9]
  TGI: > 100 µM
[10]
  TGI: > 100 µM
[11]
  TGI: > 100 µM
[12]
  TGI: > 100 µM
[13]
  TGI: > 100 µM
[14]
  TGI: > 100 µM
[15]
  TGI: > 100 µM
[16]
  TGI: > 100 µM
[17]
  TGI: > 100 µM
[18]
  TGI: > 100 µM
[19]
  TGI: > 100 µM
[20]
  TGI: > 100 µM
[21]
  TGI: > 100 µM
[22]
  TGI: > 100 µM
[23]
  TGI: > 100 µM
[24]
  TGI: > 100 µM
[25]
  TGI: > 100 µM
[26]
  TGI: > 100 µM
[27]
  TGI: > 100 µM
[28]
  TGI: > 100 µM
[29]
  TGI: > 100 µM
[30]
  TGI: > 100 µM
[31]
  TGI: > 100 µM
[32]
  TGI: > 100 µM
[33]
  TGI: > 100 µM
[34]
  TGI: > 100 µM
[35]
  TGI: > 100 µM
[36]
  TGI: > 100 µM
[37]
  TGI: > 100 µM
[38]
  TGI: > 100 µM
[39]
  TGI: > 100 µM
[40]
  TGI: > 100 µM
[41]
  TGI: > 100 µM
[42]
  TGI: > 100 µM
[43]
  TGI: > 100 µM
[44]
  TGI: > 100 µM
[45]
  TGI: > 100 µM
[46]
  TGI: > 100 µM
[47]
  TGI: 71.3 µM
[48]
  TGI: > 100 µM
[49]
  TGI: > 100 µM
[50]
  TGI: > 100 µM
[51]
  TGI: > 100 µM
[52]
  TGI: > 100 µM
[53]
  TGI: > 100 µM
[54]
  TGI: > 100 µM
[55]
  TGI: > 100 µM
[56]
  TGI: > 100 µM

## O=C1c2ccccc2-c2nc(-c3ccncc3)cc3c2c1nc1ccccc13
[1]
  TGI: > 100 µM
[2]
  TGI: > 100 µM
[3]
  TGI: > 100 µM
[4]
  TGI: 12.8 µM
[5]
  TGI: > 100 µM
[6]
  TGI: > 100 µM
[7]
  TGI: > 100 µM
[8]
  TGI: 29.5 µM
[9]
  TGI: 32.3 µM
[10]
  TGI: > 100 µM
[11]
  TGI: > 100 µM
[12]
  TGI: > 100 µM
[14]
  TGI: > 100 µM
[15]
  TGI: 90.9 µM
[17]
  TGI: > 100 µM
[18]
  TGI: 62.3 µM
[19]
  TGI: 22.4 µM
[20]
  TGI: > 100 µM
[21]
  TGI: > 100 µM
[22]
  TGI: > 100 µM
[23]
  TGI: 47.7 µM
[24]
  TGI: 29.5 µM
[25]
  TGI: 40.2 µM
[26]
  TGI: 52.8 µM
[27]
  TGI: > 100 µM
[28]
  TGI: > 100 µM
[29]
  TGI: > 100 µM
[31]
  TGI: 41.3 µM
[32]
  TGI: 44.8 µM
[33]
  TGI: 17 µM
[34]
  TGI: 26.2 µM
[35]
  TGI: > 100 µM
[36]
  TGI: > 100 µM
[57]
  TGI: > 100 µM
[37]
  TGI: 47.3 µM
[38]
  TGI: > 100 µM
[39]
  TGI: 34.5 µM
[40]
  TGI: > 100 µM
[41]
  TGI: > 100 µM
[42]
  TGI: 44.4 µM
[43]
  TGI: > 100 µM
[44]
  TGI: 26.3 µM
[45]
  TGI: 33.2 µM
[46]
  TGI: > 100 µM
[47]
  TGI: 30.7 µM
[48]
  TGI: 42.9 µM
[49]
  TGI: 25.3 µM
[50]
  TGI: > 100 µM
[51]
  TGI: > 100 µM
[52]
  TGI: > 100 µM
[54]
  TGI: > 100 µM
[55]
  TGI: 41.9 µM
[56]
  TGI: > 100 µM
